Measured values from US20020159981A1, “Methods of controlling proliferation and differentiation of stem and progenitor cells” (Gamida-Cell Ltd., priority 1999, published 2002).

Experiments:
[1] = system: Cord blood-derived CD34 cells; test: Short-term liquid culture of CD34 cells: cell number, CD34 cells, colony forming cells; assay type: cell-based, human
Description: The interphase layer of mononuclear cells were collected, washed three times with Ca/Mg free phosphate buffered saline containing 1% bovine serum albumin (BSA). The cells were incubated for 30 min. at 4° C. with murine monoclonal anti CD34 antibody (0.5 μg/10^6 mononuclear cells) and thereafter isolated using the miniMACS apparatus (Miltenyi-Biotec, Bergisch, Gladbach, Germany) according to the manufacturer's protocol.
(§1) Culture procedures: For the expansion of progenitor cells, CD34^+ enriched fractions or unseparated mononuclear cells were seeded at about 1-3×10^4 cells/ml in either alpha minimal essential medium containing 10% preselected fetal calf serum (FCS) (both from GIBCO, Grand Island, N.Y.), or serum-free medium (Progenitor-34 medium, Life Technologies, Grand Island, N.Y.). The media were supplemented with a mixture of growth factors and transition metal chelators. The cultures were incubated at 37° C. in an atmosphere of 5% CO2 in air with extra humidity. Half of the medium was changed weekly with fresh medium containing all the supplements.
(§2) Cloning potential evaluations: The cloning potential of cells developed in the liquid culture was assayed, at different intervals, in semi-solid medium. The cells were washed and seeded in 35 mm dishes in methylcellulose containing alpha medium supplemented with recombinant growth factors (SCF, G-CSF, GM-CSF and EPO). Following 2 weeks incubation, the cultures were scored with an inverted microscope. Colonies were classified as blast, mixed, erythroid, myeloid, and megakaryocytic, according to their cellular composition.
Immunofluorescence staining: At different intervals, cells from the liquid cultures were assayed for CD34 antigen. Aliquots were harvested, washed and incubated on ice with FITC-labeled anti CD45 monoclonal antibody and either PE-labeled anti CD34 (HPCA-2) monoclonal antibody or PE-labeled control mouse Ig. After incubation, red cells were lysed with lysing solution, while the remaining cells were washed and analyzed by flow cytometer.
Flow cytometry: Cells were analyzed and sorted using FACStarPlus flow cytometer (Becton-Dickinson, Immunofluorometry systems, Mountain View, Calif.). Cells were passed at a rate of 1,000 cells/second through a […] nozzle, using saline as the sheath fluid. A 488 nm argon laser beam at 250 mW served as the light source for excitation. […] The PMTs was set at the appropriate voltage. Logarithmic amplification was applied for measurements of fluorescence and linear amplification—for forward light scatter. At least 10^4 cells were analyzed.
Cord blood-derived CD34 cells were plated in liquid culture in the presence of: FL—50 ng/ml, SCF—50 ng/ml, IL-6—50 ng/ml, with or without IL-3—20 ng/ml, with or without TEPA—10 μM. On day 7, the percentage of CD34 cells and the total cell number were determined. Aliquots equivalent to 1×10^3 initiating cells were assayed on days 0 and 7 for colony forming cells (CFU) by cloning in semi-solid medium. CFU expansion represents the ratio of CFU present on day 7 to CFU present on day 0.

[2] = system: Cord blood-derived CD34 cells; test: Long-term liquid culture of CD34 cells: proliferation, CFUc, differentiation status; assay type: cell-based, human
Description: as §1, §2
Morphological assessment: In order to characterize the resulting culture populations, aliquots of cells were deposited on a glass slide (cytocentrifuge, Shandon, Runcorn, UK), fixed and stained in May-Grunwald Giemsa. Other aliquots were stained by benzidine for intracellular hemoglobin.
TEPA effects on proliferation and clonability of long-term CD34^+ cultures: Long-term cultures were maintained for 3-5 weeks by weekly demi-depopulation (one half of the culture volume was removed and replaced by fresh medium and cytokines).
CD34^+ cells derived from human neonatal cord blood were purified by immunomagnetic method and then cultured in liquid medium supplemented with cytokines either with or without transition metal chelators. At weekly intervals, the cultures were demi-depopulated by removing half of the culture content (supernatant and cells) and replacing it with fresh medium, cytokines and the chelators. At the indicated weeks the cellular content of the cultures were quantified for total cells (by a manual microscopic/hemocytometric method), for CD34^+ cells (by immuno-flow cytometry) and for clonogenic cells (by cloning the cells in cytokine-supplemented semi-solid medium). The cultures were initiated with 1×10^4 cells, 50-80% of which were CD34^+ and 25-50% of which were CFUc. The results presented in FIGS. 11 to 24 were calculated per 1×10^4 initiating cells (the numbers were multiplied by the dilution factors).

[3] = system: Murine erythroleukemia cells (MEL); test: HMBA-induced differentiation and growth of erythroleukemic cells; assay type: cell-based, mouse; conditions: day 3 (Table 2)
Description: Mouse erythroleukemic cells (MEL): MEL cells are erythroblast like cells. Following treatment with several chemicals (differentiation inducers) the cells undergo erythroid differentiation and accumulate hemoglobin. […] At day 3 of the culture, the total number of cells and the percentage of hemoglobin-containing cells were determined (Table 2).
On day 3, total cell number and hemoglobin containing (benzidine positive) cells were determined.

Cord blood-derived cells = test: Preservation of stem cells: storage and separation with TEPA, then long-term culture; assay type: cell-based; conditions: cells stored 24 hours at 4° C. and separated with 10 μM TEPA; without TEPA 5 weeks
Description: Cord blood-derived cells were collected and stored (unseparated) for 24 hours, at 4° C., either in the presence or absence of 10 μM TEPA. CD34^+ cells were then separated using either 10 μM TEPA-PBS buffer or TEPA free PBS buffer, respectively. Then, cells were grown in long-term cultures in the presence of 10 μM TEPA.

[4] = system: lethally irradiated Balb/c×C57B1/6 F1 mice; test: Hematopoietic reconstitution of lethally irradiated mice with ex-vivo expanded bone marrow cells; assay type: in vivo; conditions: compared to fresh cells or cells expanded without TEPA
Description: Hematopoietic reconstitution of lethally irradiated mice—fresh vs. ex-vivo expanded cells: Three month old female Balb/c×C57B1/6 F1 mice were lethally irradiated (1000 rad) and transplanted one day later with 1×10^5 fresh bone marrow cells or the yield of 1×10^5 bone marrow cells expanded ex-vivo either with or without TEPA for 3 to 5 weeks, as detailed in Table 7. Peripheral blood WBC counts were performed on weekly basis.

[5] = high doses of early cytokines or early- and late-acting cytokines (Table 1, FIG. 3)

NCCNCCNCCNCCN [TEPA, tetraethylenepentamine]
Cells/ml (×10^4) ([1]; TEPA 10 μM, without IL-3, FL, SCF, IL-6 50 ng/ml each, day 7): 2 ×10^4 cells/ml | total cell number ([1]; cultures supplemented with both early and late cytokines (FIG. 3)): marginal inhibition | clonability [1, 5]: significantly increased | percentage of CD34^+ cells [1, 5]: significantly increased | cell clonability ([1]; low doses of early-acting cytokines, colonies in semi-solid medium (FIG. 1)): significant increase | total cell number ([1]; low doses of early-acting cytokines, compared to cytokines only (FIG. 2)): significant increase | number of CD34^+ cells ([1]; low doses of early-acting cytokines, flow cytometry (FIG. 2)): significant increase | activity on differentiation of CD34^+ cells [2]: inhibit differentiation | clonability in long-term cultures ([2]; 3-5 weeks, early or early and late cytokines, compared to cytokines only (FIGS. 3, 4)): higher clonability | differentiation stimulatory effect of G-CSF and GM-CSF ([2]; G-CSF and GM-CSF 10 ng/ml each, CFUc frequency (FIG. 15)): blocked | CFUc in culture upon termination ([2]; after 6 weeks, started with 2.5×10^3 CFUc, TEPA 10 μM): 300×10^3 CFUc | time cultures could be maintained ([2]; early-acting cytokines, no stromal cells, TEPA 10 μM (FIG. 11)): > 6 weeks | effectiveness among polyamine chelating agents ([2]; long term cultures (FIGS. 21a-b)): more effective than the short-chain polyamines | cell proliferation and generation of CFUc in long-term cultures ([2]; long-term cultures (FIGS. 21, 22)): support continuous cell proliferation and long-term generation of CFUc and to delay cell differentiation | concentrations with optimal activity ([2]; polyamine chelating agents, weeks 3, 4, 6, 7 (FIGS. 21a-b)): 40 µM | concentrations with optimal activity ([2]; transition metal chelating agents, weeks 4, 5, 7 (FIGS. 22a-b)): 10 µM | HMBA-induced differentiation of MEL cells [3]: inhibited | time cultures expanded (Cord blood-derived cells): 8 weeks | WBC recovery [4]: faster
